Source: ChEMBL document CHEMBL5214925, “Dual-target inhibitors of indoleamine 2, 3 dioxygenase 1 (Ido1): A promising direction in cancer immunotherapy” (Eur J Med Chem, 2022)
Blank lines part the entries; values can stand above or below the compound they belong to.

How the values were obtained:
[1] = target: T1, Indoleamine 2,3-dioxygenase 1 (Homo sapiens, UniProt P14902); experiment: Inhibition of recombinant N-terminal His tagged IDO1 (unknown origin) expressed in Escherichia coli incubated for 1.5 hrs by FULOstar OMEGA plate reader method
Target sequence in this assay (P14902 whole entry): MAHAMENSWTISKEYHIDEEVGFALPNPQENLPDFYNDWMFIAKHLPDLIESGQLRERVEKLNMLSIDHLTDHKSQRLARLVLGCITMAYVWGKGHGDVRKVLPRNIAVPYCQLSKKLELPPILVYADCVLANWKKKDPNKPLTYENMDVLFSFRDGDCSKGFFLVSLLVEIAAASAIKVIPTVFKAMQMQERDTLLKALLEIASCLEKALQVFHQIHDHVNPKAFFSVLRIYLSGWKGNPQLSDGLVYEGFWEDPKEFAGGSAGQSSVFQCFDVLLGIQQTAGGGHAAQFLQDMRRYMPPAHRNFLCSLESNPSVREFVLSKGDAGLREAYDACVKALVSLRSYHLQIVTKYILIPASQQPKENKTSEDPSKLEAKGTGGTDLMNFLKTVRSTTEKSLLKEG

[2] = target: Tryptophan 2,3-dioxygenase (Homo sapiens, UniProt P48775); experiment: Inhibition of recombinant C-terminal His tagged TDO (unknown origin) expressed in Escherichia coli
Sequence of Tryptophan 2,3-dioxygenase (P48775 whole entry): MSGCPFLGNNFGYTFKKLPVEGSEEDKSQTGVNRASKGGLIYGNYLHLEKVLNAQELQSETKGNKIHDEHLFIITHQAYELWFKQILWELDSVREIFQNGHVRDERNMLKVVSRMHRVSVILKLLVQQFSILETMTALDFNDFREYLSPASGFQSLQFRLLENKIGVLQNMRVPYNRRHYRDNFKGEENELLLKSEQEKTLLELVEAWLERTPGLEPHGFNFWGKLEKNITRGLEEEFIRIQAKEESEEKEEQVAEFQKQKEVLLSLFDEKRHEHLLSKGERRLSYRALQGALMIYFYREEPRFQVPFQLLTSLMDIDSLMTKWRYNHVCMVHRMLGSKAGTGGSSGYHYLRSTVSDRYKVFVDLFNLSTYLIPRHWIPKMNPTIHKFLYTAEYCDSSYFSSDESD

HCT-116 [3] = experiment: Cytotoxicity against human HCT-116 incubated for 24 hrs by CCK-8 assay; type: functional, cell-based; settings: HCT-116, 24 h
[4] = Cytotoxicity against human colon epithelial cells incubated for 24 hrs by CCK-8 assay; type: functional, cell-based; settings: Epithelial cell
[5] = target: T1, Indoleamine 2,3-dioxygenase 1; experiment: Inhibition of IDO1 in human BT-549 cells; type: cell-based; settings: pooled result: one value given for 2 cell lines, strains, targets or settings
Target sequence in this assay (P14902 whole entry): as the sequence (P14902 whole entry) above

[6] = Antiproliferative activity against melanoma cells (unknown origin) subcutaneously xenografted in mouse model assessed as inhibition of cell growth rate at 50 mg/kg relative to control; type: functional; settings: sc
[7] = Antiproliferative activity against melanoma cells (unknown origin) subcutaneously xenografted in mouse model assessed as inhibition of cell growth rate at 100 mg/kg relative to control; type: functional; settings: sc
[8] = target: T1, Indoleamine 2,3-dioxygenase 1; experiment: Inhibition of IDO1 in human A-172 cells; type: cell-based
Target sequence in this assay (P14902 whole entry): as above

CT26 [9] = experiment: Antitumor activity against mouse CT26 cells allografted in immunocompetent mouse assessed as tumor growth inhibition relative to control; type: functional
CT26 [10] = experiment: Cytotoxicity against […] cells by CCK-8 method; type: functional, cell-based; settings: Mus musculus
HCT-116 [11] = experiment: Cytotoxicity against human HCT-116 cells by CCK-8 method; type: functional, cell-based
HT-29 = experiment: Cytotoxicity against human HT-29 cells by CCK-8 method; type: functional, cell-based
CT26 [12] = experiment: Antitumor activity against mouse CT26 cells allografted in nude mouse assessed as reduction in tumor volume relative to control; type: functional; parameters: scale not given: the % may be the effect or the level left
[13] = target: T1, Indoleamine 2,3-dioxygenase 1; experiment: Inhibition of human recombinant IDO1 in human HeLa cells incubated for 48 hrs; type: cell-based
Target sequence in this assay (P14902 whole entry): as above

HeLa = experiment: Cytotoxicity against human HeLa cells; type: functional; settings: read-out: LC50 (the source's name)
A549 = experiment: Cytotoxicity against human A549 cells by CCK-8 method; type: functional, cell-based
[14] = Volume of distribution in Sprague-Dawley rat plasma; type: ADME, cell-free
CT26 [15] = experiment: Antitumor activity against mouse CT26 cells allografted in mouse assessed as tumor growth inhibition at 50 mg/kg; type: functional; settings: read-out: TGI
[16] = Clearance in Sprague-Dawley rat plasma; type: ADME, cell-free
[17] = target: T1, Indoleamine 2,3-dioxygenase 1; experiment: Inhibition of human N-terminal His tagged recombinant IDO1 (5 to 403 residues) expressed in Escherichia coli BL21 (DE3)
Target sequence in this assay (P14902 whole entry): as above

[18] = target: T1, Indoleamine 2,3-dioxygenase 1; experiment: Inhibition of IDO1 in human HeLa cells; type: cell-based
Target sequence in this assay (P14902 whole entry): as above

[19] = Inhibition of rat liver TrxR incubated for 1 hr; type: tissue-based
[20] = Inhibition of TrxR in human HCT-116 cell lysate; type: subcellular
[21] = Antitumor activity against Lewis lung carcinoma cell in C57BL/6 mouse assessed as tumor growth inhibition at 60 mg/kg relative to control; type: functional; settings: C57BL/6, Lewis lung carcinoma, read-out: TGI
HCT-116 [22] = experiment: Antiproliferative activity against human HCT-116 cells; type: functional, cell-based
[23] = Antiproliferative activity against mouse Lewis lung carcinoma cell line; type: functional, cell-based
[24] = target: T1, Indoleamine 2,3-dioxygenase 1; experiment: Inhibition of IDO1 (unknown origin)
[25] = Antitumor activity against Lewis Lung carcinoma cells in mouse expressing IDO1 assessed as tumor growth inhibition relative to control; type: functional
CT26 [26] = experiment: Antiproliferative activity against mouse CT26 cells; type: functional, cell-based
[27] = Antitumor activity against mouse HEPA1-6 cells allografted in mouse model over expressing TDO assessed as tumor growth inhibition relative to control; type: functional
[28] = Antitumor activity against mouse LL2 cells allografted in mouse model over expressing IDO1 assessed as tumor growth inhibition relative to control; type: functional, Lewis lung carcinoma
[29] = Antitumor activity against mouse HEPA1-6 cells allografted in mouse model over expressing IDO1 assessed as tumor growth inhibition relative to control; type: functional
[30] = target: T1, Indoleamine 2,3-dioxygenase 1; experiment: Inhibition of IDO1 (unknown origin) using L-tryptophan as substrate incubated for 10 mins
Histone deacetylase 1 = Histone deacetylase 1 (Homo sapiens, UniProt Q13547); experiment: Inhibition of HDAC1 (unknown origin) using […] as substrate preincubated for 15 mins followed by substrate addition measured after 60 mins
Sequence of Histone deacetylase 1 (Q13547 whole entry): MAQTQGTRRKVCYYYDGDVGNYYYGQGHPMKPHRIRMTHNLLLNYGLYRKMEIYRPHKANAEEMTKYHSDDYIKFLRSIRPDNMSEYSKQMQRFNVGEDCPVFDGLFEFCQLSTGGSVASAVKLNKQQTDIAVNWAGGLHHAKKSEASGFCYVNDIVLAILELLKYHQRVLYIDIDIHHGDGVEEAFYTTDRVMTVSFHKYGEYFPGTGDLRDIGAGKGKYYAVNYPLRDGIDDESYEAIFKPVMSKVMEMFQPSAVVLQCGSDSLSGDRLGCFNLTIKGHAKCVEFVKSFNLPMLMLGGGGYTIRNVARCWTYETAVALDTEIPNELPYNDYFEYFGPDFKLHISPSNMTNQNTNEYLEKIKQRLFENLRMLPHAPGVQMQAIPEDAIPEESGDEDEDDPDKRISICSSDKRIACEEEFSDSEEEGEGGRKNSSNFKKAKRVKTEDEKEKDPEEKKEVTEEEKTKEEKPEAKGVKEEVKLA

[31] = target: T1, Indoleamine 2,3-dioxygenase 1; experiment: Inhibition of IDO1 (unknown origin) using L-tryptophan as substrate at 10 uM incubated for 10 mins relative to control
Target sequence in this assay (P14902 whole entry, looked up): as the sequence (P14902 whole entry) above

IC50 [1]: 0.0096 µM
IC50 [2]: 0.029 µM
Structure (SMILES): O[C@@H](c1cn2cncc2cc1Cl)C1CCCCC1

Structure (SMILES): COc1cc(/C=C/C(=O)N2CCC=CC2=O)cc(OC)c1OC [PIPLARTINE]
IC50 (HCT-116 [3]): 6.38 µM
IC50 [4]: 46.9 µM

IC50 [5]: 20.6 µM
Structure (SMILES): COc1ccccc1C(=O)CC(=O)c1ccc(C)cc1O

Structure (SMILES): COc1cc(Nc2cc(NC(C)=O)cc3[nH]c(C(=O)O)cc23)cc(OC)c1OC
inhibition in vivo at 50 mg/kg [6]: 43.2%
inhibition in vivo at 100 mg/kg [7]: 44.7%

IC50 [8]: 37.7 µM
Structure (SMILES): CC1=C(CC(=O)c2sccc2Br)C(=O)c2ccccc2C1=O

Structure (SMILES): O=C(NCCNc1nonc1/C(=N/O)Nc1ccc(F)c(Br)c1)c1cccc(N(CCCl)CCCl)c1
TGI (CT26 [9]): 58.2%
IC50 (CT26 [10]): 25 µM
IC50 (HCT-116 [11]): 25 µM
IC50 (HT-29): 19 µM
Activity (CT26 [12]): 28.6%
EC50 [13]: 0.27 µM
CC50 (HeLa): 39 µM
IC50 (A549): 17 µM

IC50 [5]: 10.8 µM
Structure (SMILES): Cc1ccc(C(=O)CC(=O)c2ccccc2OC(C)C)c(O)c1

Vd [14]: 0.88 L/kg
clearance [16]: 27.5 mL/min/kg
Structure (SMILES): OCCOCc1cn(CCNc2nonc2/C(=N/O)Nc2ccc(F)c(Br)c2)nn1
inhibition in vivo at 50 mg/kg (CT26 [15]): 69.7%

IC50 [17]: 0.084 µM
EC50 [18]: 1.41 µM
IC50 [19]: 7.89 µM
IC50 [20]: 4.22 µM
Structure (SMILES): O=C1C=CCCN1C(=O)/C=C/c1ccccc1-c1c[nH]cn1
IC50 (HCT-116 [3]): 0.55 µM
IC50 [4]: 42 µM

Structure (SMILES): NS(=O)(=O)NCCNc1nonc1/C(=N/O)Nc1ccc(F)c(Br)c1 [EPACADOSTAT]
TGI (CT26 [9]): 47.5%
inhibition in vivo at 60 mg/kg [21]: 68%

Structure (SMILES): NC(CC(=O)O)Cc1c[nH]c2cc(N(CCCl)CCCl)ccc12 (stereo unspecified)
IC50 (HCT-116 [22]): 63.9 µM
IC50 [23]: 63.9 µM
IC50 [24]: 227 µM
TGI [25]: 73.5%
IC50 (CT26 [26]): 63.9 µM

Structure (SMILES): O=C1c2cc(F)ccc2C(=O)c2c1nnn2-c1ccc(F)c(Cl)c1
TGI [27]: 80%
TGI [28]: 62.5%
TGI [29]: 80%

IC50 [30]: 0.73 µM
IC50 (Histone deacetylase 1): 0.46 µM
Structure (SMILES): Cc1ccc2c(c1CCC(=O)NCCCCCC(=O)CNc1ccccc1N)C(=O)C(=O)C(C(C)C)=C2

inhibition [31]: 85%
Structure (SMILES): CC(C)=CCCc1c(C)ccc2c1C(=O)C(=O)C(C(C)C)=C2

IC50 [1]: 0.049 µM
IC50 [2]: 0.078 µM
Structure (SMILES): Cn1cc(-c2ccc(NC(N)=O)cc2)c2ccc(F)cc21

Structure (SMILES): NC(CC(=O)O)Cc1c[nH]c2ccc(N(CCCl)CCCl)cc12 (stereo unspecified)
IC50 (HCT-116 [22]): 23.7 µM
IC50 [23]: 23.7 µM
IC50 [24]: 14 µM
TGI [25]: 63.8%
IC50 (CT26 [26]): 23.7 µM
